Experiment: Aqueous stability of formulated compound (% remaining over time)
Assay type: physicochemical
Conditions: 0.0005% w/v (5 ppm) in pH 6 buffer contain 1% PS80, n = 1

| % Remaining (25° C., 14 days) [%] | % Remaining (25° C., 28 days) [%] | % Remaining (40° C., 14 days) [%] | % Remaining (40° C., 28 days) [%] | % Remaining (60° C., 14 days) [%] | % Remaining (60° C., 28 days) [%] | SMILES |
| --- | --- | --- | --- | --- | --- | --- |
| 99.3 | 99.6 | 99.1 | 99.5 | 98.6 | 97.0 | CC(=O)NCCOC(=O)c1ccc(CCC[C@@H]2[C@@H](CCc3cc(Cl)cc(Cl)c3)[C@H](O)C[C@H]2Cl)s1 [Compound 2, 2-Acetamidoethyl 5-(3-((1R,2R,3R,5R)-5-chloro-2-(3,5-dichlorophenethyl)-3-hydroxycyclopentyl)propyl)thiophene-2-carboxylate] |
| 99.2 | 103.5 | 99.8 | 100.5 | 99.4 | 98.6 | CC(=O)NCCCOC(=O)c1ccc(CCC[C@@H]2[C@@H](CCc3cc(Cl)cc(Cl)c3)[C@H](O)C[C@H]2Cl)s1 [Compound 3, 3-Acetamidopropyl 5-(3-((1R,2R,3R,5R)-5-chloro-2-(3,5-dichlorophenethyl)-3-hydroxycyclopentyl)propyl)thiophene-2-carboxylate] |

— patent US9573926B2, “Amidoalkylenyl and amidoaryl esters, compositions thereof, and methods for their use” (Allergan, Inc., priority 2014, dated 2017)
